US20260285855A1, “HETEROARYL DERIVATIVES AS DDRS INHIBITORS” (CHIESI FARMACEUTICI S.P.A., priority 2023, published 2026)

Assays:
[1] = molecular target: T1, DDR2 (Homo sapiens, UniProt Q16832); assay: LanthaScreen Europium Kinase Binding assay, DDR2; conditions: 5 nM DDR2, 10 nM Kinase Tracer 178, 1 h at rt; Ki from IC50 by Cheng-Prusoff; read-out: Ki DDR2
T1 construct: purchased Life Technologies
T1 sequence (Q16832 22-855): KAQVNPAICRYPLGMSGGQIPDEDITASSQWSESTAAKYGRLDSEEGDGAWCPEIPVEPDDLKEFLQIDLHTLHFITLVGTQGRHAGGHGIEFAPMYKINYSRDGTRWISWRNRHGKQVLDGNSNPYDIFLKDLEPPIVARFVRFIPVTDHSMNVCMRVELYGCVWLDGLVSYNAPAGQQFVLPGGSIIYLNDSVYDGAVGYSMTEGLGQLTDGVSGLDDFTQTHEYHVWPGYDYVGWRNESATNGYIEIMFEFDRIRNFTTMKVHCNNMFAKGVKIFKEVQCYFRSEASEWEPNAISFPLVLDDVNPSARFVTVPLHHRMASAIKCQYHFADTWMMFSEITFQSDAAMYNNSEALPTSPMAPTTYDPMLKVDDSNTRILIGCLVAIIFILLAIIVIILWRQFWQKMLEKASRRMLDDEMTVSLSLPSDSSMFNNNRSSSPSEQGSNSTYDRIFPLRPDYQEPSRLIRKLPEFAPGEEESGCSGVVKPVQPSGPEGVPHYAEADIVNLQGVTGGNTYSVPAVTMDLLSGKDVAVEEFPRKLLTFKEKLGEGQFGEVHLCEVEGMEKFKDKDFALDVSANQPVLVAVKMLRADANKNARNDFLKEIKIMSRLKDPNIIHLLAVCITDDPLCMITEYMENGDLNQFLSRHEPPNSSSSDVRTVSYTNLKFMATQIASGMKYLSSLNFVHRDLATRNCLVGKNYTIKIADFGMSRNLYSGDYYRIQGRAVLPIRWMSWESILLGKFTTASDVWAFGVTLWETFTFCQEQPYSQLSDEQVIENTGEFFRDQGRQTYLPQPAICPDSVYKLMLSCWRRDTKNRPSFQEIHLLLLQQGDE
Procedure: (§1) DDR1 and DDR2 binding assays were performed using Life Technologies LanthaScreen™ Europium Kinase Binding assay. […] IC50 values were determined in GraphPad Prism 7.0 software, using 4 parameter model: log (inhibitor) vs. response. IC50 values were converted in Ki using the Cheng-Prusoff equation (Ki-IC50/(1+ [Tracer]/Kd).

[2] = molecular target: T2, DDR1 (Homo sapiens, UniProt Q08345); assay: LanthaScreen Europium Kinase Binding assay, DDR1; conditions: 5 nM DDR1, 20 nM Kinase Tracer 178, 1 h at rt; Ki from IC50 by Cheng-Prusoff; read-out: Ki DDR1
T2 construct: purchased Carna Biosciences
T2 sequence (Q08345 19-913): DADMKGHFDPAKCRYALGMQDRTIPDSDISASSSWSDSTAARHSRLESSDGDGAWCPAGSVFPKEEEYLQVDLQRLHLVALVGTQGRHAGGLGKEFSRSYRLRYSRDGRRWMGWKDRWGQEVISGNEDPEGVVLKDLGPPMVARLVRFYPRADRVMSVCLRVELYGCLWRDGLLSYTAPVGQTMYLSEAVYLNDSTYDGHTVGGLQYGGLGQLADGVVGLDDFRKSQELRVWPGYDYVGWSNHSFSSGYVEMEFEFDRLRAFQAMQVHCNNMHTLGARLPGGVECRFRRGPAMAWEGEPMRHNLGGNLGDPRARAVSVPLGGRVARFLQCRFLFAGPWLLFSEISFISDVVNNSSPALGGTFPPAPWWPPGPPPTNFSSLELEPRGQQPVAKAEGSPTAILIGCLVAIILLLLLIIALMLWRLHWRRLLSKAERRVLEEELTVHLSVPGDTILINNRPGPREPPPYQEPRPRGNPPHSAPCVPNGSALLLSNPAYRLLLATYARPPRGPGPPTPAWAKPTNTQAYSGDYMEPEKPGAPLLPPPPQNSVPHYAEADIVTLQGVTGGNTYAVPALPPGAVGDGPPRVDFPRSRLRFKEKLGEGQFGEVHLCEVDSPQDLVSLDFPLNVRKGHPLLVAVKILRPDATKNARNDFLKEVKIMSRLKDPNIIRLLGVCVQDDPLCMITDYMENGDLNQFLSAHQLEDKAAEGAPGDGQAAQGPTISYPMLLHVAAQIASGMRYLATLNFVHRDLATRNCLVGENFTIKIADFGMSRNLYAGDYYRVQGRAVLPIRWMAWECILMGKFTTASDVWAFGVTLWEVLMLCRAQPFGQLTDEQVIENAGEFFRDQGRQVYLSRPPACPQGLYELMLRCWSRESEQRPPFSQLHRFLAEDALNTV
Procedure: as §1

Compound	Ki [1] [nM]	Ki [2] [nM]
CN(C(=O)Nc1cc(Cl)cc(C(F)(F)F)c1)C1CC2(C1)CN(C(=O)c1ncnc3[nH]ccc13)C2 [Example 286, 1-(2-(7H-pyrrolo[2,3-d]pyrimidine-4-carbonyl)-2-azaspiro[3.3]heptan-6-yl)-3-(3-chloro-5-(trifluoromethyl)phenyl)-1-methylurea]	5 to 25	< 5
COc1cc(NC(=O)N(C)C2CC3(C2)CN(C(=O)c2cnn4ccn(C)c24)C3)cc(C(F)(F)F)c1 [Example 287, 3-(3-methoxy-5-(trifluoromethyl)phenyl)-1-methyl-1-(2-(1-methyl-1H-imidazo[1,2-b]pyrazole-7-carbonyl)-2-azaspiro[3.3]heptan-6-yl)urea]	5 to 25	< 5
Cc1nc(NC(=O)N(C)C2CC3(C2)CN(C(=O)c2cnn4ccsc24)C3)cc(C(F)(F)F)n1 [Example 289, 1-methyl-3-(2-methyl-6-(trifluoromethyl)pyrimidin-4-yl)-1-(2-(pyrazolo[5,1-b]thiazole-7-carbonyl)-2-azaspiro[3.3]heptan-6-yl)urea]	5 to 25	< 5
Cc1nc(NC(=O)N(C)C2CC3(C2)CN(C(=O)c2cnn4ccn(C)c24)C3)cc(C(F)(F)F)n1 [Example 290, 1-methyl-1-(2-(1-methyl-1H-imidazo[1,2-b]pyrazole-7-carbonyl)-2-azaspiro[3.3]heptan-6-yl)-3-(2-methyl-6-(trifluoromethyl)pyrimidin-4-yl)urea]	25 to 100	5 to 25
CN(C(=O)Nc1cc(C(F)(F)F)cs1)C1CC2(C1)CN(C(=O)c1cnn3ccn(C)c13)C2 [Example 291, 1-methyl-1-(2-(1-methyl-1H-imidazo[1,2-b]pyrazole-7-carbonyl)-2-azaspiro[3.3]heptan-6-yl)-3-(4-(trifluoromethyl)thiophen-2-yl)urea]	5 to 25	< 5
O=C(Nc1cc(C(F)(F)F)ncn1)OC1CC2(C1)CN(C(=O)c1cnn3ccsc13)C2 [Example 292, 2-(pyrazolo[5,1-b]thiazole-7-carbonyl)-2-azaspiro[3.3]heptan-6-yl(6-(trifluoromethyl)pyrimidin-4-yl)carbamate]	5 to 25	< 5
CC(C)(c1cc(NC(=O)OC2CC3(C2)CN(C(=O)c2cnn4ccsc24)C3)no1)C(F)(F)F [Example 293, 2-(pyrazolo[5,1-b]thiazole-7-carbonyl)-2-azaspiro[3.3]heptan-6-yl(5-(1,1,1-trifluoro-2-methylpropan-2-yl)isoxazol-3-yl)carbamate]	< 5	< 5

Now from value to compound:

Ki [1] [nM]	Ki [2] [nM]	Compound
5 to 25	< 5	Cc1c(F)cc(C(F)(F)F)cc1NC(=O)N(C)C1CC2(C1)CN(C(=O)c1cnn3ccn(C)c13)C2 [Example 283, 3-(3-fluoro-2-methyl-5-(trifluoromethyl)phenyl)-1-methyl-1-(2-(1-methyl-1H-imidazo[1,2-b]pyrazole-7-carbonyl)-2-azaspiro[3.3]heptan-6-yl)urea]
5 to 25	< 5	CN(C(=O)Nc1cc(C#N)cc(C(F)(F)F)c1)C1CC2(C1)CN(C(=O)c1ncnc3[nH]ccc13)C2 [Example 284, 1-(2-(7H-pyrrolo[2,3-d]pyrimidine-4-carbonyl)-2-azaspiro[3.3]heptan-6-yl)-3-(3-cyano-5-(trifluoromethyl)phenyl)-1-methylurea]
< 5	< 5	CN(C(=O)Nc1cc(C(F)(F)F)ccc1Cl)C1CC2(C1)CN(C(=O)c1ncnc3[nH]ccc13)C2 [Example 285, 1-(2-(7H-pyrrolo[2,3-d]pyrimidine-4-carbonyl)-2-azaspiro[3.3]heptan-6-yl)-3-(2-chloro-5-(trifluoromethyl)phenyl)-1-methylurea]
5 to 25	< 5	CCOc1ccc(C(F)(F)F)cc1NC(=O)N(C)C1CC2(C1)CN(C(=O)c1cnn3ccn(C)c13)C2 [Example 288, 3-(2-ethoxy-5-(trifluoromethyl)phenyl)-1-methyl-1-(2-(1-methyl-1H-imidazo[1,2-b]pyrazole-7-carbonyl)-2-azaspiro[3.3]heptan-6-yl)urea]
